We go through 15 molecules from BindingDB's records for patent WO2025051920 (Sanofi-Aventis Deutschland, 2025).

For this assay, the target named is Interleukin-23 subunit alpha/receptor (UniProt Q5VWK5). The experiment in a line: ELISA assay for specific human IL-23R inhibitors. How it is done:
A 384-well plate was coated with 50 µl/well of human IL-23 at a final concentration of […] and incubated overnight at 4°C. The wells were washed 3 times with […] wash buffer and blocked with […] blocking buffer for 60 minutes at room temperature and washed again. 20 µl of serially diluted test peptides was added to each well and subsequently 20 µl of recombinant human IL-23R-Fc chimera at final concentration of […]. The plate was incubated for 60 minutes at room temperature. After the wells were washed, bound IL-23R-Fc was detected with goat anti-hu- IgG 1 -HRP antibody. Signals were visualized with QuantaBlu Fluorogenic Peroxidase Substrate.
(ELISA stands for enzyme-linked immunosorbent assay.)

Sequence of Interleukin-23 subunit alpha/receptor (Q9NPF7 whole entry): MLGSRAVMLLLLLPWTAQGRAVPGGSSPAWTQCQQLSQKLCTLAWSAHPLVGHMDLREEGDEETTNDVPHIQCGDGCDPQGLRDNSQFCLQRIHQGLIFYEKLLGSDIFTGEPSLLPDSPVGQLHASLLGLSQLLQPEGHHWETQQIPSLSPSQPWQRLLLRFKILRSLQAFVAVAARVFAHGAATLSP
Sequence of Interleukin-23 subunit alpha/receptor (Q5VWK5 whole entry): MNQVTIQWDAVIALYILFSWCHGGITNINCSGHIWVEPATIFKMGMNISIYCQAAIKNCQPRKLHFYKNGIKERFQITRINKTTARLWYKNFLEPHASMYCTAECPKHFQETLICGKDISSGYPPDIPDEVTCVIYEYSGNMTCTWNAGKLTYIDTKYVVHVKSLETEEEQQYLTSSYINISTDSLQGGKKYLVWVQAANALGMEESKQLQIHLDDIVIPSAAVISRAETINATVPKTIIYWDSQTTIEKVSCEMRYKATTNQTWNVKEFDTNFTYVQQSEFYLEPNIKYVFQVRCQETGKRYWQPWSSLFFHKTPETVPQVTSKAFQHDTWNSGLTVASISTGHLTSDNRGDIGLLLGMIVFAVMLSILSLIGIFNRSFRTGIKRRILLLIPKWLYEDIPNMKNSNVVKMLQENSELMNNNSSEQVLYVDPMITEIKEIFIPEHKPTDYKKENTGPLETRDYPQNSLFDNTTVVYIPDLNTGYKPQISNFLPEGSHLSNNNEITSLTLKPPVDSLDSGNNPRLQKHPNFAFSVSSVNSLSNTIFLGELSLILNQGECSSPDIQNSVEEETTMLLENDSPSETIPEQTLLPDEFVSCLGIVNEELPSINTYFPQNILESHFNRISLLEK

By IC50 is commonly meant the concentration at which inhibition is half-maximal. Low values mean greater potency in that assay, high ones weaker potency in that assay. As to `COc1ccc(C[C@@H]2NC(=O)[C@H](CC(C)C)NC(=O)[C@H](CCC(N)=O)NC(=O)[C@H](Cc3c[nH]c4ccccc34)NC(=O)[C@H]([C@@H](C)O)NC(=O)[C@H](CC(N)=O)NC(=O)[C@H](NC(C)=O)CCCCNC(=O)C[C@@H](C(=O)N[C@@H](CC(N)=O)C(=O)N[C@@H](CC(N)=O)C(=O)O)NC(=O)C(C)(C)NC(=O)[C@H](Cc3ccc4ccccc4c3)NC2=O)cc1` [WO2025051920, Example 1], half-maximal inhibition (IC50) required 0.63 nM.
Molecule `COc1ccc(C[C@@H]2NC(=O)[C@H](C)NC(=O)[C@H](CCC(N)=O)NC(=O)[C@H](Cc3c[nH]c4ccccc34)NC(=O)[C@H]([C@@H](C)O)NC(=O)[C@H](CC(N)=O)NC(=O)[C@H](NC(C)=O)CCCCNC(=O)C[C@@H](C(=O)N[C@@H](CC(N)=O)C(=O)N[C@@H](CC(N)=O)C(=O)O)NC(=O)C(C)(C)NC(=O)[C@H](Cc3ccc4ccccc4c3)NC2=O)cc1` [WO2025051920, Example 2] showed an IC50 of 0.69 nM.
As to `CC(=O)N[C@@H]1CCCCNC(=O)C[C@@H](C(=O)N[C@@H](CC(N)=O)C(=O)N[C@@H](CC(N)=O)C(=O)O)NC(=O)C(C)(C)NC(=O)[C@H](Cc2ccc3ccccc3c2)NC(=O)[C@H](Cc2ccc(O)cc2)NC(=O)[C@H](CCCNC(=N)N)NC(=O)[C@H](CCC(N)=O)NC(=O)[C@H](Cc2c[nH]c3ccccc23)NC(=O)[C@H]([C@@H](C)O)NC(=O)[C@H](CC(N)=O)NC1=O` [WO2025051920, Example 4], the IC50 worked out at 1.59 nM.
In the case of `COc1ccc(C[C@@H]2NC(=O)[C@H](CCCNC(=N)N)NC(=O)[C@H](CCC(N)=O)NC(=O)[C@H](Cc3c[nH]c4ccccc34)NC(=O)[C@H]([C@@H](C)O)NC(=O)[C@H](CC(N)=O)NC(=O)[C@@H](NC(C)=O)CC(=O)NCCCC(C(=O)N[C@@H](CC(N)=O)C(=O)N[C@@H](CC(N)=O)C(=O)O)NC(=O)C(C)(C)NC(=O)[C@H](Cc3ccc4ccccc4c3)NC2=O)cc1` (stereo not given in full) [WO2025051920, Example 6] it was 1.96 nM; in that of `COc1ccc(C[C@@H]2NC(=O)[C@H](CC(C)C)NC(=O)[C@H](CCC(N)=O)NC(=O)[C@H](Cc3c[nH]c4ccccc34)NC(=O)[C@H]([C@@H](C)O)NC(=O)[C@H](CC(N)=O)NC(=O)[C@H](NC(C)=O)CCCCNC(=O)C[C@@H](C(=O)N[C@@H](CC(N)=O)C(=O)N[C@@H](CC(N)=O)C(=O)O)NC(=O)C(C)(C)NC(=O)[C@H](Cc3cccc4ccccc34)NC2=O)cc1` [WO2025051920, Example 7], 2.47 nM.
In the case of `COc1ccc(C[C@@H]2NC(=O)[C@H](C)NC(=O)[C@H](CCC(N)=O)NC(=O)[C@H](Cc3c[nH]c4ccccc34)NC(=O)[C@H]([C@@H](C)O)NC(=O)[C@H](CC(N)=O)NC(=O)[C@H](NC(C)=O)CCCCNC(=O)C[C@@H](C(=O)N[C@@H](CC(N)=O)C(=O)N[C@@H](CC(N)=O)C(=O)O)NC(=O)C(C)(C)NC(=O)[C@H](Cc3cccc4ccccc34)NC2=O)cc1` [WO2025051920, Example 8] it was 2.74 nM.
In the case of `COc1ccc(C[C@@H]2NC(=O)[C@H](CCCNC(=N)N)NC(=O)[C@H](CCC(N)=O)NC(=O)[C@H](Cc3cn(C)c4ccccc34)NC(=O)[C@H]([C@@H](C)O)NC(=O)[C@H](CC(N)=O)NC(=O)[C@H](NC(C)=O)CCCCNC(=O)C[C@@H](C(=O)N[C@@H](CC(N)=O)C(=O)N[C@@H](CC(N)=O)C(=O)O)NC(=O)[C@H](CCCCNC(C)=O)NC(=O)[C@H](Cc3ccc4ccccc4c3)NC2=O)cc1` [WO2025051920, Example 10] it was 3.6 nM; in that of `COc1ccc(C[C@@H]2NC(=O)[C@H](CCCNC(=N)N)NC(=O)[C@H](CCC(N)=O)NC(=O)[C@H](Cc3c[nH]c4ccccc34)NC(=O)[C@H]([C@@H](C)O)NC(=O)[C@H](CC(N)=O)NC(=O)[C@H](NC(C)=O)CC(=O)NCCCC[C@@H](C(=O)N[C@@H](CC(N)=O)C(=O)N[C@@H](CC(N)=O)C(=O)O)NC(=O)C(C)(C)NC(=O)[C@H](Cc3cccc4ccccc34)NC2=O)cc1` [WO2025051920, Example 11], 18.9 nM; in that of `COc1ccc(C[C@@H]2NC(=O)[C@H](CCCNC(=N)N)NC(=O)[C@H](CCC(N)=O)NC(=O)[C@H](Cc3c[nH]c4ccccc34)NC(=O)[C@H]([C@@H](C)O)NC(=O)[C@H](CC(N)=O)NC(=O)[C@H](NC(C)=O)CC(=O)NCCCC[C@@H](C(=O)N[C@@H](CC(N)=O)C(=O)N[C@@H](CC(N)=O)C(=O)O)NC(=O)C(C)(C)NC(=O)[C@H](Cc3ccc4ccccc4c3)NC2=O)cc1` [WO2025051920, Example 12], 14.9 nM.
Turning to `COc1ccc(C[C@@H]2NC(=O)[C@H](CCCNC(=N)N)NC(=O)[C@H](CCC(N)=O)NC(=O)[C@H](Cc3c[nH]c4ccccc34)NC(=O)[C@H]([C@@H](C)O)NC(=O)[C@H](CC(N)=O)NC(=O)[C@H](NC(C)=O)CC(=O)NCCC[C@@H](C(=O)N[C@@H](CC(N)=O)C(=O)N[C@@H](CC(N)=O)C(=O)O)NC(=O)C(C)(C)NC(=O)[C@H](Cc3ccc4ccccc4c3)NC2=O)cc1` [WO2025051920, Example 13], the IC50 turned out to be 6.24 nM.
Under `CC(=O)N[C@@H]1CCCCNC(=O)C[C@@H](C(=O)N[C@@H](CC(N)=O)C(=O)N[C@@H](CC(N)=O)C(=O)O)NC(=O)C(C)(C)NC(=O)[C@H](Cc2cccc3ccccc23)NC(=O)[C@H](Cc2ccc(O)cc2)NC(=O)[C@H](CCCNC(=N)N)NC(=O)[C@H](CCC(N)=O)NC(=O)[C@H](Cc2c[nH]c3ccccc23)NC(=O)[C@H]([C@@H](C)O)NC(=O)[C@H](CC(N)=O)NC1=O` [WO2025051920, Example 14] stands 5.42 nM; under `COc1ccc(C[C@@H]2NC(=O)[C@H](CCCNC(=N)N)NC(=O)[C@H](CCC(N)=O)NC(=O)[C@H](Cc3c[nH]c4ccccc34)NC(=O)[C@H]([C@@H](C)O)NC(=O)[C@H](CC(N)=O)NC(=O)[C@H](NC(C)=O)CCCCNC(=O)C[C@@H](C(=O)N[C@@H](CC(N)=O)C(=O)N[C@@H](CC(N)=O)C(=O)O)NC(=O)[C@H](CCCCNC(C)=O)NC(=O)[C@H](Cc3cccc4ccccc34)NC2=O)cc1` [WO2025051920, Example 17], 7.87 nM; under `COc1ccc(C[C@@H]2NC(=O)[C@H](CCCNC(=N)N)NC(=O)[C@H](CCC(N)=O)NC(=O)[C@H](Cc3c[nH]c4ccccc34)NC(=O)[C@H]([C@@H](C)O)NC(=O)[C@H](CC(N)=O)NC(=O)[C@H](NC(C)=O)CCCCNC(=O)C[C@@H](C(=O)N[C@@H](CC(N)=O)C(=O)N[C@@H](CC(N)=O)C(=O)O)NC(=O)[C@H](CCCNC(N)=O)NC(=O)[C@H](Cc3cccc4ccccc34)NC2=O)cc1` [WO2025051920, Example 18], 11.7 nM.
Molecule `COc1ccc(C[C@@H]2NC(=O)[C@H](CCCNC(=N)N)NC(=O)[C@H](CCC(N)=O)NC(=O)[C@H](Cc3c[nH]c4ccccc34)NC(=O)[C@H]([C@@H](C)O)NC(=O)[C@H](CC(N)=O)NC(=O)[C@H](NC(C)=O)CCCCNC(=O)C[C@@H](C(=O)N[C@@H](CC(N)=O)C(=O)N[C@@H](CC(N)=O)C(=O)O)NC(=O)[C@H](CCC(N)=O)NC(=O)[C@H](Cc3cccc4ccccc34)NC2=O)cc1` [WO2025051920, Example 19] came in with an IC50 of 15.6 nM.
In the case of `COc1ccc(C[C@@H]2NC(=O)[C@H](C(C)C)NC(=O)[C@H](CCC(N)=O)NC(=O)[C@H](Cc3c[nH]c4ccccc34)NC(=O)[C@H]([C@@H](C)O)NC(=O)[C@H](CC(N)=O)NC(=O)[C@H](NC(C)=O)CCCCNC(=O)C[C@@H](C(=O)N[C@@H](CC(N)=O)C(=O)N[C@@H](CC(N)=O)C(=O)O)NC(=O)C(C)(C)NC(=O)[C@H](Cc3cccc4ccccc34)NC2=O)cc1` [WO2025051920, Example 20] it was 15.9 nM.
